Laboratory results published in patent publication US20220000835A1, “METHOD FOR TREATING CANCER WITH A COMBINATION OF QUERCETIN AND A CHEMOTHERAPY AGENT” (Quercis Pharma A.G., priority 2014, published 2022).

Key:
[1] = Stabilization of quercetin by vitamin B3 and/or vitamin C; format: physicochemical; details: in the presence of one or both of vitamin B3 and vitamin C
[2] = tested on: metastatic bladder cancer; assay: Patient with tumor from metastatic bladder cancer, PET scan and patient report; format: in vivo, human; details: patient bearing a tumor from metastatic bladder cancer
Procedure: In a particular example, a patient bearing a tumor resulting from metastatic bladder cancer failed monotherapy with cisplatin. Subsequently, the patient was treated daily with 100 mg cyclophosphamide together with a composition containing 2 g of quercetin. […] Of note, this patient typically would not have been treated further after failing the monotherapy with cisplatin.

stability of quercetin [1] | SMILES | outcome of monotherapy [2]
stabilized | O=c1c(O)c(-c2ccc(O)c(O)c2)oc2cc(O)cc(O)c12 [quercetin] | 
 | N.N.[Cl][Pt][Cl] [cisplatin] | failed
